Measured values as given in ChEMBL document CHEMBL1128832, “Substituted alkylpyridines as P3 ligands for the hydroxyethylpiperazine class of HIV-1 protease inhibitors: Improved pharmacokinetic profiles” (Bioorg Med Chem Lett, 1995).

Columns and labels:
MT4 = assay: Antiviral activity in MT-4 human lymphoid cells infected with IIIB isolate by viral spread assay; format: functional; settings: read-out: CIC95
[1] = Area under curve was determined in dogs after oral administration (10 mg/kg) as a 0.05 M citric acid solution.; format: ADME, organism-based, Canis lupus familiaris; settings: dog, in vivo
[2] = Maximum plasma concentration in dogs after oral administration (10 mg/kg) as a 0.05 M citric acid solution.; format: ADME, organism-based, Canis lupus familiaris; parameters: dose 10 mg/kg, route oral; settings: dog
[3] = Half life to reach the blood concentration was determined in dogs after oral administration (10 mg/kg) as a 0.05 M citric acid solution.; format: ADME, organism-based, Canis lupus familiaris; settings: dog
[4] = Maximum time taken to reach maximum blood concentration was determined in dogs after oral administration (10 mg/kg) as a 0.05 M citric acid solution.; format: ADME, organism-based, Canis lupus familiaris; settings: dog
[5] = molecular target: Human immunodeficiency virus type 1 protease (Human immunodeficiency virus 1, UniProt Q72874); assay: In vitro inhibitory activity against HIV-1 protease enzyme.
[6] = Maximum plasma concentration in dogs after oral administration (8 mg/kg) as a 0.05 M citric acid solution.; format: ADME, organism-based, Canis lupus familiaris; parameters: dose 8 mg/kg, route oral; settings: dog
[7] = Maximum time taken to reach maximum blood concentration was determined in dogs after oral administration (8 mg/kg) as a 0.05 M citric acid solution.; format: ADME, organism-based, Canis lupus familiaris; settings: dog
[8] = Area under curve was determined in dogs after oral administration (8 mg/kg) as a 0.05 M citric acid solution.; format: ADME, organism-based, Canis lupus familiaris; settings: dog, in vivo
[9] = Half life to reach the blood concentration was determined in dogs after oral administration (8 mg/kg) as a 0.05 M citric acid solution.; format: ADME, organism-based, Canis lupus familiaris; settings: dog

Row | SMILES | IC95 (MT4) | AUC [1] | Cmax [2] | half-life [3] | Tmax [4] | IC50 [5] | Cmax [6] | Tmax [7] | AUC [8] | half-life [9]
1 | CC(C)c1cc(CN2CCN(C[C@@H](O)[C@H](Cc3ccccc3)NC(=O)O[C@@H]3CCS(=O)(=O)[C@@H]3C(C)C)[C@H](C(=O)NC(C)(C)C)C2)cc(C(C)C)n1 | 50 nM |  |  |  |  |  |  |  |  | 
2 | Cc1cc(CN2CCN(C[C@@H](O)[C@H](Cc3ccccc3)NC(=O)O[C@@H]3CCS(=O)(=O)[C@@H]3C(C)C)[C@H](C(=O)NC(C)(C)C)C2)ccn1 | 75 nM | 7.4 µM·h | 8.6 µM | 121 min | 10 min |  |  |  |  | 
3 | CCC(C)c1cc(CN2CCN(C[C@@H](O)[C@H](Cc3ccccc3)NC(=O)O[C@@H]3CCS(=O)(=O)[C@@H]3C(C)C)[C@H](C(=O)NC(C)(C)C)C2)ccn1 (stereo not given in full) | 25 nM |  |  |  |  | 1.2 nM |  |  |  | 
4 | CCc1cc(CN2CCN(C[C@@H](O)[C@H](Cc3ccccc3)NC(=O)O[C@@H]3CCS(=O)(=O)[C@@H]3C(C)C)[C@H](C(=O)NC(C)(C)C)C2)ccn1 | 81 nM | 5.4 µM·h | 4.1 µM | 91 min | 20 min |  |  |  |  | 
5 | CC(C)c1cc(CN2CCN(C[C@@H](O)[C@H](Cc3ccccc3)NC(=O)O[C@@H]3CCS(=O)(=O)[C@@H]3C(C)C)[C@H](C(=O)NC(C)(C)C)C2)ccn1 | 67 nM |  |  |  |  |  |  |  |  | 
6 | Cc1cc(CN2CCN(C[C@@H](O)[C@H](Cc3ccccc3)NC(=O)O[C@@H]3CCS(=O)(=O)[C@@H]3C(C)C)[C@H](C(=O)NC(C)(C)C)C2)cc(C)n1 | 50 nM |  |  |  |  |  | 3.6 µM | 40 min | 4.5 µM·h | 28 min
7 | CCc1cc(CN2CCN(C[C@@H](O)[C@H](Cc3ccccc3)NC(=O)O[C@@H]3CCS(=O)(=O)[C@@H]3C(C)C)[C@H](C(=O)NC(C)(C)C)C2)cc(CC)n1 | 42 nM | 2.9 µM·h | 3 µM | 36 min | 25 min |  |  |  |  | 
8 | CCCc1cc(CN2CCN(C[C@@H](O)[C@H](Cc3ccccc3)NC(=O)O[C@@H]3CCS(=O)(=O)[C@@H]3C(C)C)[C@H](C(=O)NC(C)(C)C)C2)ccn1 | 12 nM |  |  |  |  |  | 2.3 µM | 25 min | 1.5 µM·h | 21 min
9 | CC(C)[C@@H]1[C@H](OC(=O)N[C@@H](Cc2ccccc2)[C@H](O)CN2CCN(Cc3ccncc3)C[C@H]2C(=O)NC(C)(C)C)CCS1(=O)=O | 200 nM | 4.3 µM·h | 6.7 µM | 24 min | 25 min |  |  |  |  | 
10 | CCCCc1cc(CN2CCN(C[C@@H](O)[C@H](Cc3ccccc3)NC(=O)O[C@@H]3CCS(=O)(=O)[C@@H]3C(C)C)[C@H](C(=O)NC(C)(C)C)C2)cc(CCCC)n1 | 25 nM |  |  |  |  |  |  |  |  | 
